Source: ChEMBL document CHEMBL1152576, “E-Combretastatin and E-resveratrol structural modifications: antimicrobial and cancer cell growth inhibitory beta-E-nitrostyrenes” (Bioorg Med Chem, 2009)
≈ marks a conversion by molar mass, not a printed value. Calls of active or inactive are those of the source. No cut-off for these calls is given here.

Experiments:
NCI-H460 = test: Cytotoxicity against human NCI-H460 cells after 48 hrs by sulforhodamine B assay; assay type: functional; settings: NCI-H460, 48 h
Candida albicans [1] = test: Antifungal activity against Candida albicans ATCC 90028 after 48 hrs by broth microdilution susceptibility assay; assay type: functional; settings: ATCC 90028, 48 h
Staphylococcus aureus [2] = test: Antimicrobial activity against Staphylococcus aureus ATCC 29213 assessed clear zone in inhibition per disk by CLSI disk diffusion susceptibility assay; assay type: functional
Enterococcus faecalis [3] = test: Antimicrobial activity against Enterococcus faecalis ATCC 29212 by broth microdilution susceptibility assay; assay type: functional
MCF7 = test: Cytotoxicity against human MCF7 cells after 48 hrs by sulforhodamine B assay; assay type: functional
SK-MEL-5 = test: Cytotoxicity against human SK-MEL-5 cells after 48 hrs by sulforhodamine B assay; assay type: functional
Cryptococcus neoformans [4] = test: Antifungal activity against Cryptococcus neoformans ATCC 90112 after 48 hrs by broth microdilution susceptibility assay; assay type: functional; settings: ATCC 90112, 48 h
Neisseria gonorrhoeae [5] = test: Antimicrobial activity against Neisseria gonorrhoeae ATCC 49226 after 24 hrs by broth microdilution susceptibility assay; assay type: functional; settings: ATCC 49226, 24 h
Micrococcus luteus [6] = test: Antimicrobial activity against Micrococcus luteus Presque Isle 456 by broth microdilution susceptibility assay; assay type: functional
Staphylococcus aureus [7] = test: Antimicrobial activity against Staphylococcus aureus ATCC 29213 by broth microdilution susceptibility assay; assay type: functional
Cryptococcus neoformans [8] = test: Antifungal activity against Cryptococcus neoformans ATCC 90112 after 72 hrs by broth microdilution susceptibility assay; assay type: functional; settings: ATCC 90112, 72 h
Streptococcus pneumoniae [9] = test: Antimicrobial activity against Streptococcus pneumoniae ATCC 6303 after 24 hrs by broth microdilution susceptibility assay; assay type: functional; settings: ATCC 6303, 24 h
Streptococcus pneumoniae [10] = test: Antimicrobial activity against Streptococcus pneumoniae ATCC 6303 by broth microdilution susceptibility assay; assay type: functional
Escherichia coli [11] = test: Antimicrobial activity against Escherichia coli ATCC 25922 assessed clear zone in inhibition per disk by CLSI disk diffusion susceptibility assay; assay type: functional
SF-268 = test: Cytotoxicity against human SF268 cells after 48 hrs by sulforhodamine B assay; assay type: functional
[12] = Inhibition of tubulin polymerization
Enterobacter cloacae [13] = test: Antimicrobial activity against Enterobacter cloacae ATCC 13047 assessed clear zone in inhibition per disk by CLSI disk diffusion susceptibility assay; assay type: functional
Neisseria gonorrhoeae [14] = test: Antimicrobial activity against Neisseria gonorrhoeae ATCC 49226 by broth microdilution susceptibility assay; assay type: functional
Cryptococcus neoformans [15] = test: Antimicrobial activity against Cryptococcus neoformans ATCC 90112 assessed clear zone in inhibition per disk by CLSI disk diffusion susceptibility assay; assay type: functional
Candida albicans [16] = test: Antimicrobial activity against Candida albicans ATCC 90028 assessed clear zone in inhibition per disk by CLSI disk diffusion susceptibility assay; assay type: functional
Streptococcus pneumoniae [17] = test: Antimicrobial activity against Streptococcus pneumoniae ATCC 6303 assessed clear zone in inhibition per disk by CLSI disk diffusion susceptibility assay; assay type: functional
Enterococcus faecalis [18] = test: Antimicrobial activity against Enterococcus faecalis ATCC 29212 assessed clear zone in inhibition per disk by CLSI disk diffusion susceptibility assay; assay type: functional
Neisseria gonorrhoeae [19] = test: Antimicrobial activity against Neisseria gonorrhoeae ATCC 49226 assessed clear zone of inhibition measured per disk by CLSI disk diffusion susceptibility assay; assay type: functional
DU-145 = test: Cytotoxicity against human DU145 cells after 48 hrs by sulforhodamine B assay; assay type: functional; settings: DU-145, 48 h
A498 = test: Cytotoxicity against human A498 cells after 48 hrs by sulforhodamine B assay; assay type: functional
SF-295 = test: Cytotoxicity against human SF295 cells after 48 hrs by sulforhodamine B assay; assay type: functional
Candida albicans [20] = test: Antifungal activity against Candida albicans ATCC 90028 after 24 hrs by broth microdilution susceptibility assay; assay type: functional; settings: ATCC 90028, 24 h
KM-20L2 = test: Cytotoxicity against human KM20L2 cells after 48 hrs by sulforhodamine B assay; assay type: functional; settings: KM-20L2, 48 h
[21] = test system: Stenotrophomonas maltophilia; test: Antimicrobial activity against Stenotrophomonas maltophilia ATCC 13637 by broth microdilution susceptibility assay; assay type: functional
P388 = test: Cytotoxicity against mouse P388 cells after 48 hrs by sulforhodamine B assay; assay type: functional; settings: P388, 48 h, read-out: ED50 (the source's name)
Micrococcus luteus [22] = test: Antimicrobial activity against Micrococcus luteus Presque Isle 456 assessed clear zone in inhibition per disk by CLSI disk diffusion susceptibility assay; assay type: functional
Enterobacter cloacae [23] = test: Antimicrobial activity against Enterobacter cloacae ATCC 13047 by broth microdilution susceptibility assay; assay type: functional
BXPC-3 = test: Cytotoxicity against human BxPC3 cells after 48 hrs by sulforhodamine B assay; assay type: functional; settings: BXPC-3, 48 h
Escherichia coli [24] = test: Antimicrobial activity against Escherichia coli ATCC 25922 by broth microdilution susceptibility assay; assay type: functional
[25] = test system: Stenotrophomonas maltophilia; test: Antimicrobial activity against Stenotrophomonas maltophilia ATCC 13637 assessed clear zone in inhibition per disk by CLSI disk diffusion susceptibility assay; assay type: functional
OVCAR-3 = test: Cytotoxicity against human OVCAR-3 cells after 48 hrs by sulforhodamine B assay; assay type: functional

Row | Structure (SMILES) | GI50 (NCI-H460) [µg/mL] | MIC (Candida albicans [1]) [µg/mL] | MIC (Staphylococcus aureus [2]) [µg] | MIC (Enterococcus faecalis [3]) [µg/mL] | GI50 (SK-MEL-5) | MFC (Cryptococcus neoformans [4]) [µg/mL] | MBC (Neisseria gonorrhoeae [5]) [µg/mL] | MIC (Micrococcus luteus [6]) [µg/mL] | MIC (Staphylococcus aureus [7]) [µg/mL] | MIC (Cryptococcus neoformans [8]) [µg/mL] | MIC (Streptococcus pneumoniae [10]) [µg/mL] | MIC (Escherichia coli [11]) [µg] | IC50 [12] [µM] | MIC (Enterobacter cloacae [13]) [µg] | MIC (Neisseria gonorrhoeae [14]) [µg/mL] | MIC (Cryptococcus neoformans [15]) [µg] | MIC (Candida albicans [16]) [µg] | MIC (Streptococcus pneumoniae [17]) [µg] | MIC (Enterococcus faecalis [18]) [µg] | MIC (Neisseria gonorrhoeae [19]) [µg] | other results
1 | O=[N+]([O-])/C=C/c1ccccc1O | 0.95 (≈ 5.75 µM) | 16 (≈ 96.9 µM) | 25 | > 64 | inactive | 32 (≈ 194 µM) | 2 (≈ 12.1 µM) | > 64 | > 64 | 8 (≈ 48.4 µM) | 32 (≈ 194 µM) | 25 | 4.4 | 25 | 2 (≈ 12.1 µM) | 0.78 | 1.56 | 1.56 | 50 | <0.78 | GI50 (MCF7; MCF7, 48 h): 0.47 µg/mL (≈ 2.85 µM); MBC (Streptococcus pneumoniae [9]): > 64 µg/mL; GI50 (SF-268; SF-268, 48 h): 1.2 µg/mL (≈ 7.27 µM); GI50 (DU-145): 1 µg/mL (≈ 6.06 µM); GI50 (A498): inactive; GI50 (SF-295): inactive; MFC (Candida albicans [20]): 32 µg/mL (≈ 194 µM); GI50 (KM-20L2): 1.6 µg/mL (≈ 9.69 µM); MIC [21]: 32 µg/mL (≈ 194 µM); EC50 (P388): 3.5 µg/mL (≈ 21.2 µM); MIC (Micrococcus luteus [22]): 25 µg; MIC (Enterobacter cloacae [23]): > 64 µg/mL; GI50 (BXPC-3): 1.1 µg/mL (≈ 6.66 µM); MIC (Escherichia coli [24]): 64 µg/mL (≈ 388 µM); MIC [25]: 12.5 µg; GI50 (OVCAR-3): inactive
2 | COc1cc(/C=C/[N+](=O)[O-])cc(OC)c1O | 0.38 (≈ 1.69 µM) | > 64 | >100 | > 64 | inactive | 64 (≈ 284 µM) | 4 (≈ 17.8 µM) | > 64 | > 64 | 64 (≈ 284 µM) | 64 (≈ 284 µM) | >100 | 8.5 | >100 | 4 (≈ 17.8 µM) | 25 | 50 | 6.25 | 50 | 1.56 | GI50 (MCF7; MCF7, 48 h): 0.44 µg/mL (≈ 1.95 µM); MBC (Streptococcus pneumoniae [9]): > 64 µg/mL; GI50 (SF-268; SF-268, 48 h): 0.54 µg/mL (≈ 2.4 µM); GI50 (DU-145): 0.36 µg/mL (≈ 1.6 µM); GI50 (A498): inactive; GI50 (SF-295): inactive; GI50 (KM-20L2): 1.1 µg/mL (≈ 4.88 µM); MIC [21]: > 64 µg/mL; EC50 (P388): 2.2 µg/mL (≈ 9.77 µM); MIC (Micrococcus luteus [22]): >100 µg; MIC (Enterobacter cloacae [23]): > 64 µg/mL; GI50 (BXPC-3): 1.5 µg/mL (≈ 6.66 µM); MIC (Escherichia coli [24]): > 64 µg/mL; MIC [25]: 50 µg; GI50 (OVCAR-3): inactive
3 | COc1cc(/C=C/[N+](=O)[O-])cc(OC)c1 | 2 (≈ 9.56 µM) | 16 (≈ 76.5 µM) | 6.25 | > 64 | inactive | 16 (≈ 76.5 µM) | 2 (≈ 9.56 µM) | > 64 | > 64 | 16 (≈ 76.5 µM) | 64 (≈ 306 µM) | >100 | 3.9 | >100 | 2 (≈ 9.56 µM) | 0.78 | 3.12 | >100 | 12.5 | 0.78 | GI50 (MCF7; MCF7, 48 h): 1.8 µg/mL (≈ 8.6 µM); MBC (Streptococcus pneumoniae [9]): > 64 µg/mL; GI50 (SF-268; SF-268, 48 h): 2.3 µg/mL (≈ 11 µM); GI50 (DU-145): 1.5 µg/mL (≈ 7.17 µM); GI50 (A498): inactive; GI50 (SF-295): inactive; MFC (Candida albicans [20]): 16 µg/mL (≈ 76.5 µM); GI50 (KM-20L2): 1.5 µg/mL (≈ 7.17 µM); MIC [21]: > 64 µg/mL; EC50 (P388): 0.24 µg/mL (≈ 1.15 µM); MIC (Micrococcus luteus [22]): 25 µg; MIC (Enterobacter cloacae [23]): > 64 µg/mL; GI50 (BXPC-3): 1.6 µg/mL (≈ 7.65 µM); MIC (Escherichia coli [24]): > 64 µg/mL; MIC [25]: >100 µg; GI50 (OVCAR-3): inactive
4 | O=[N+]([O-])/C=C/c1ccc(O)cc1 | 1.7 (≈ 10.3 µM) | 16 (≈ 96.9 µM) | 50 | > 64 | inactive | 8 (≈ 48.4 µM) | 4 (≈ 24.2 µM) | > 64 | > 64 | 8 (≈ 48.4 µM) | 64 (≈ 388 µM) | 12.5 | 10 | 25 | 4 (≈ 24.2 µM) | 6.25 | 12.5 | 6.25 | 6.25 | <0.78 | GI50 (MCF7; MCF7, 48 h): 0.48 µg/mL (≈ 2.91 µM); GI50 (SF-268): inactive; GI50 (DU-145): 1.5 µg/mL (≈ 9.08 µM); GI50 (A498): inactive; GI50 (SF-295; SF-295, 48 h): 1.7 µg/mL (≈ 10.3 µM); MFC (Candida albicans [20]): 16 µg/mL (≈ 96.9 µM); GI50 (KM-20L2): 1.5 µg/mL (≈ 9.08 µM); MIC [21]: > 64 µg/mL; EC50 (P388): 1.5 µg/mL (≈ 9.08 µM); MIC (Micrococcus luteus [22]): >100 µg; MIC (Enterobacter cloacae [23]): > 64 µg/mL; GI50 (BXPC-3): 1.6 µg/mL (≈ 9.69 µM); MIC (Escherichia coli [24]): > 64 µg/mL; MIC [25]: 6.25 µg; GI50 (OVCAR-3): inactive
5 | COc1cc(/C=C/[N+](=O)[O-])ccc1O | 0.34 (≈ 1.74 µM) | 16 (≈ 82 µM) | 12.5 | > 64 | inactive | 16 (≈ 82 µM) | 4 (≈ 20.5 µM) | > 64 | > 64 | 16 (≈ 82 µM) | > 64 | 6.25 | 9.3 | >100 | 4 (≈ 20.5 µM) | 3.12 | 6.25 | 3.12 | 25 | 0.78 | GI50 (MCF7): inactive; GI50 (SF-268): inactive; GI50 (DU-145): 0.38 µg/mL (≈ 1.95 µM); GI50 (A498): inactive; GI50 (SF-295; SF-295, 48 h): 0.37 µg/mL (≈ 1.9 µM); MFC (Candida albicans [20]): 16 µg/mL (≈ 82 µM); GI50 (KM-20L2): 1.1 µg/mL (≈ 5.64 µM); MIC [21]: > 64 µg/mL; EC50 (P388): 0.18 µg/mL (≈ 0.922 µM); MIC (Micrococcus luteus [22]): 50 µg; MIC (Enterobacter cloacae [23]): > 64 µg/mL; GI50 (BXPC-3): 1.2 µg/mL (≈ 6.15 µM); MIC (Escherichia coli [24]): > 64 µg/mL; MIC [25]: 50 µg; GI50 (OVCAR-3; OVCAR-3, 48 h): 0.48 µg/mL (≈ 2.46 µM)
